Assay results as given in patent US8877748B2, “Heterocyclic fused anthraquinone derivatives, manufacturing method and pharmaceutical composition using thereof” (National Defense Medical Center, priority 2012, dated 2014).
“And” between values parts separate entries of the source, which are not always exact repeats. Equal values may be shown once. Read-outs that look alike come from different tables or passages of the source.

Tests used:
M14 = experiment: NCI one-dose screening, melanoma M14; type: cell-based, human; conditions: 10 μM
OVCAR-4 = experiment: NCI one-dose screening, ovarian cancer OVCAR-4; type: cell-based, human; conditions: 10 μM
NCI-H522 = experiment: NCI one-dose screening, non-small cell lung cancer NCI-H522; type: cell-based, human; conditions: 10 μM
NCI-H23 = experiment: NCI one-dose screening, non-small cell lung cancer NCI-H23; type: cell-based, human; conditions: 10 μM
MOLT-4 = experiment: NCI one-dose screening, leukemia MOLT-4; type: cell-based, human; conditions: 10 μM
DU145 = experiment: NCI one-dose screening, prostate cancer DU145; type: cell-based, human; conditions: 10 μM
MCF7 = experiment: NCI one-dose screening, breast cancer MCF7; type: cell-based, human; conditions: 10 μM
K562cell line = experiment: NCI one-dose screening, leukemia K562; type: cell-based, human; conditions: 10 μM
UO-31 = experiment: NCI one-dose screening, renal cancer UO-31; type: cell-based, human; conditions: 10 μM
HS 578-T = experiment: NCI one-dose screening, breast cancer HS 578-T; type: cell-based, human; conditions: 10 μM; Breast cancer
human tumor cell lines = experiment: NCI one-dose screening, Mean / Delta / Range of growth percent over all tested cell lines; type: cell-based; conditions: 10 μM
RXF, 393 = experiment: NCI one-dose screening, renal cancer RXF, 393; type: cell-based, human; conditions: 10 μM
SK-MEL-2 = experiment: NCI one-dose screening, melanoma SK-MEL-2; type: cell-based, human; conditions: 10 μM
T-47D = experiment: NCI one-dose screening, breast cancer T-47D; type: cell-based, human; conditions: 10 μM
HOP-62 = experiment: NCI one-dose screening, non-small cell lung cancer HOP-62; type: cell-based, human; conditions: 10 μM
[1] = test system: PC-3 prostate cancer cell line; experiment: SRB assay cell viability, PC-3 prostate cancer cell line; type: cell-based, human; conditions: Homo sapiens
HCC-2998 = experiment: NCI one-dose screening, colon cancer HCC-2998; type: cell-based, human; conditions: 10 μM
PC-3 = experiment: NCI one-dose screening, prostate cancer PC-3; type: cell-based, human; conditions: 10 μM
TK-10 = experiment: NCI one-dose screening, renal cancer TK-10; type: cell-based, human; conditions: 10 μM
OVCAR-3 = experiment: NCI one-dose screening, ovarian cancer OVCAR-3; type: cell-based, human; conditions: 10 μM
CCRF-CEM = experiment: NCI screening platform one-dose single concentration screening, leukemia CCRF-CEM; type: cell-based, human; conditions: 10 μM
SK-MEL-5 = experiment: NCI one-dose screening, melanoma SK-MEL-5; type: cell-based, human; conditions: 10 μM
SNB-19 = experiment: NCI one-dose screening, CNS cancer SNB-19; type: cell-based, human; conditions: 10 μM
SNB-75 = experiment: NCI one-dose screening, CNS cancer SNB-75; type: cell-based, human; conditions: 10 μM
NCI-H322M = experiment: NCI one-dose screening, non-small cell lung cancer NCI-H322M; type: cell-based, human; conditions: 10 μM; Non-small cell lung cancer
SK-OV-3 = experiment: NCI one-dose screening, ovarian cancer SK-OV-3; type: cell-based, human; conditions: 10 μM
LOX IMVI = experiment: NCI one-dose screening, melanoma LOX IMVI; type: cell-based, human; conditions: 10 μM
[2] = NCI one-dose screening, renal cancer A489; type: cell-based, human; conditions: 10 μM
UACC-257 = experiment: NCI one-dose screening, melanoma UACC-257; type: cell-based, human; conditions: 10 μM
PRMI-8226 cell line = experiment: NCI one-dose screening, leukemia PRMI-8226; type: cell-based, human; conditions: 10 μM
BT-549 = experiment: NCI one-dose screening, breast cancer BT-549; type: cell-based, human; conditions: 10 μM
786-O = experiment: NCI one-dose screening, renal cancer 786-O; type: cell-based, human; conditions: 10 μM
NCI-H226 = experiment: NCI one-dose screening, non-small cell lung cancer NCI-H226; type: cell-based, human; conditions: 10 μM
SF-268 = experiment: NCI one-dose screening, CNS cancer SF-268; type: cell-based, human; conditions: 10 μM
UACC-62 = experiment: NCI one-dose screening, melanoma UACC-62; type: cell-based, human; conditions: 10 μM
SF-295 = experiment: NCI one-dose screening, CNS cancer SF-295; type: cell-based, human; conditions: 10 μM
NCI-H460 = experiment: NCI one-dose screening, non-small cell lung cancer NCI-H460; type: cell-based, human; conditions: 10 μM
HL-60, TB = experiment: NCI one-dose screening, leukemia HL-60, TB; type: cell-based, human; conditions: 10 μM
SR = experiment: NCI one-dose screening, leukemia SR; type: cell-based, human; conditions: 10 μM
A549/ATCC = experiment: NCI one-dose screening, non-small cell lung cancer A549/ATCC; type: cell-based, human; conditions: 10 μM
OVCAR-8 = experiment: NCI one-dose screening, ovarian cancer OVCAR-8; type: cell-based, human; conditions: 10 μM
HCT-15 = experiment: NCI one-dose screening, colon cancer HCT-15; type: cell-based, human; conditions: 10 μM
COLO 205 = experiment: NCI one-dose screening, colon cancer COLO 205; type: cell-based, human; conditions: 10 μM
MALME-3M = experiment: NCI one-dose screening, melanoma MALME-3M; type: cell-based, human; conditions: 10 μM
MDA-MB-231/ATCC = experiment: NCI one-dose screening, breast cancer MDA-MB-231/ATCC; type: cell-based, human; conditions: 10 μM
IGROV1 = experiment: NCI one-dose screening, ovarian cancer IGROV1; type: cell-based, human; conditions: 10 μM
HOP-92 = experiment: NCI one-dose screening, non-small cell lung cancer HOP-92; type: cell-based, human; conditions: 10 μM
SF-539 = experiment: NCI one-dose screening, CNS cancer SF-539; type: cell-based, human; conditions: 10 μM
SN12C = experiment: NCI one-dose screening, renal cancer SN12C; type: cell-based, human; conditions: 10 μM
SK-MEL-28 = experiment: NCI one-dose screening, melanoma SK-MEL-28; type: cell-based, human; conditions: 10 μM
CAKI-1 = experiment: NCI one-dose screening, renal cancer CAKI-1; type: cell-based, human; conditions: 10 μM
U251 = experiment: NCI one-dose screening, CNS cancer U251; type: cell-based, human; conditions: 10 μM
MDA-MB-468 = experiment: NCI one-dose screening, breast cancer MDA-MB-468; type: cell-based, human; conditions: 10 μM
HCT-116 = experiment: NCI one-dose screening, colon cancer HCT-116; type: cell-based, human; conditions: 10 μM
KM12 = experiment: NCI one-dose screening, colon cancer KM12; type: cell-based, human; conditions: 10 μM

## O=C1c2ccccc2C(=O)c2c1cc(Sc1ccccc1)c1nsnc21 [C19, 4-(phenylthio)anthra[2,1-c][1,2,5] thiadiazol-6,11-dione]
M14
  Growth Percent M14: 106.41%
OVCAR-4
  Growth Percent OVCAR-4: 57.83%
NCI-H522
  Growth Percent NCI-H522: 100.56%
NCI-H23
  Growth Percent NCI-H23: 101.59%
MOLT-4
  Growth Percent MOLT-4: 31.08%
DU145
  Growth Percent DU145: 102.73%
MCF7
  Growth Percent MCF7: 94.88%
K562cell line
  Growth Percent K562: 52.03%
UO-31
  Growth Percent UO-31: 80.12%
HS 578-T
  Growth Percent HS 578T: 95.89%
Human tumor cell lines; delta over all cell lines
  Growth Percent Delta: 77.74%
Human tumor cell lines; mean over all cell lines
  Growth Percent Mean: 93.48%
Human tumor cell lines; range over all cell lines
  Growth Percent Range: 123.73%
RXF, 393
  Growth Percent RXF 393: 114.31%
SK-MEL-2
  Growth Percent SK-MEL-2: 112.49%
T-47D
  Growth Percent T-47D: 93.21%
HOP-62
  Growth Percent HOP-62: 97.77%
[1]; PC-3 prostate cancer cell line, Table II prints no unit, μM printed, read-out: SRB assay: 50% inhibition of cancer cell proliferation of sample concentration (IC50) of PC-3 prostate cancer cell line
  IC50: 28.6 µM
[1]; PC-3 prostate cancer cells, read-out: IC50 in PC-3 prostate cancer cells (cell viability analysis)
  IC50: > 15 µM
HCC-2998
  Growth Percent HCC-2998: 110.88%
PC-3
  Growth Percent PC-3: 87.32%
TK-10
  Growth Percent TK-10: 143.47%
OVCAR-3
  Growth Percent OVCAR-3: 96.67%
CCRF-CEM
  Growth Percent CCRF-CEM: 15.74%
SK-MEL-5
  Growth Percent SK-MEL-5: 85.68%
SNB-19
  Growth Percent SNB-19: 108.79%
SNB-75
  Growth Percent SNB-75: 96.12%
NCI-H322M
  Growth Percent NCI-H322M: 79.21%
SK-OV-3
  Growth Percent SK-OV-3: 105.6%
LOX IMVI
  Growth Percent LOX IMVI: 42%
[2]
  Growth Percent A498: 95.01%
UACC-257
  Growth Percent UACC-257: 92.75%
PRMI-8226 cell line
  Growth Percent RPMI-8226: 78.21%
BT-549
  Growth Percent BT-549: 104.68%
786-O
  Growth Percent 786-0: 110.04%
NCI-H226
  Growth Percent NCI-H226: 117.67% and 94.91%
SF-268
  Growth Percent SF-268: 102.24%
UACC-62
  Growth Percent UACC-62: 86.28%
SF-295
  Growth Percent SF-295: 106.36%
NCI-H460
  Growth Percent NCI-H460: 100.74%
HL-60, TB
  Growth Percent HL-60(TB): 83.94%
SR
  Growth Percent SR: 86.41%
A549/ATCC
  Growth Percent A549/ATCC: 105.68%
OVCAR-8
  Growth Percent OVCAR-8: 82.3%
HCT-15
  Growth Percent HCT-15: 93.89%
COLO 205
  Growth Percent COLO 205: 117.53%
MALME-3M
  Growth Percent MALME-3M: 106.43%
MDA-MB-231/ATCC
  Growth Percent MDA-MB-231/ATCC: 66.67%
IGROV1
  Growth Percent IGROV1: 84.4%
HOP-92
  Growth Percent HOP-92: 110.22%
SF-539
  Growth Percent SF-539: 106.54%
SN12C
  Growth Percent SN12C: 96.58%
SK-MEL-28
  Growth Percent SK-MEL-28: 127.12%
CAKI-1
  Growth Percent CAKI-1: 89.04%
U251
  Growth Percent U251: 88.75%
MDA-MB-468
  Growth Percent MDA-MB-468: 87.29%
HCT-116
  Growth Percent HCT-116: 90.08%
KM12
  Growth Percent KM12: 99.5%
